In patent publication US20240398919A1, “EPITOPE PEPTIDE FOR TUMOR-ASSOCIATED ANTIGEN AND USE THEREOF” (SHENZHEN INSTITUTES OF ADVANCEDTECHNOLOGY CHINESE ACADEMY …, priority 2023, published 2024):
“Also recorded” adds a separate entry of the source.

Columns and labels:
[1] = tested on: splenocytes (IFN-γ secreting T cells); assay: IFN-γ ELISPOT of splenocytes co-cultured with peptides; format: cell-based; conditions: splenocytes of immunized mice, 5×10^5/well, co-cultured with peptide (10 μg) for 20 h; vs DPBS and CpG groups
Method: Isolate splenocytes: Spleens were gently mashed and filtered through a 70-μm strainer (Falcon, Corning, Germany), and then collected into a 15 mL centrifuge tube. After adding 1 mL erythrocyte lysis buffer and washing in PBS, cells were collected for ELISPOT assay.
Enzyme-linked immunospot assay (ELISPOT): splenocytes were isolated according to the above method and were co-cultured with different polypeptides (10 μg) at 5×10^5/well for 20 h. The size and number of IFN-γ positive spots were calculated by using Adobe Photoshop CS6 software.
FIGS. 5A and 5B is a graph showing the detection results of the ability of specific T cells to secrete IFN-γ induced by tumor antigen epitope peptides. In FIGS. 5A and 5B, the experimental mice were euthanized, the monocytes derived from spleens were co-cultured with different peptides for 20 h to detect the secretion of IFN-γ by ELISPOT assay according to the manufacturer's instructions. Spleens were gently mashed and monocytes were isolated using a lymphocyte separation medium. The monocytes were incubated into wells of an ELISPOT plate and stimulated synchronously. The cells were incubated in an incubator at 37° C. and cytokines were captured. The number of T cells specifically secreting IFN-γ in splenocytes of the immunized mice can be detected by detecting the formation of spots.

[2] = tested on: MB49 bladder cancer cells; assay: Tumor growth inhibition by peptide vaccines in the mouse bladder cancer treatment model; format: in vivo, C57BL/6 mice; conditions: 3×10^5 MB49 cells s.c. on Day 0; peptide 100 μg/100 μL + CpG ODN 1826 10 μM s.c. on day 3, 6, 9, 12, 15, 18, 21; tumor size every 3 days; vs DPBS and CpG groups
Method: Cancer cells and animal model: MB49 bladder cancer cells were grown in DMEM containing 10% FBS (Fetal Bovine Serum, Gibco, 10099141C) and 1% PS (Penicillin-Streptomycin-Glutamine, Gibco, 10378016). 3×10^5 MB49 cancer cells were resuspended in 100 μL of DPBS and injected subcutaneously into a lower back of male C57BL/6 mice (6-8 weeks old), respectively to construct a mouse bladder cancer treatment model. After the initial implantation of tumors, the mice developed tumors around 5 days, and after tumor formation, the tumor growth was monitored every other 3 days, and a long diameter (a) and a short diameter (b) of the tumor were measured with a vernier caliper, and the size of each solid tumor was calculated according to the solid tumor size V=axbxb/2, and a tumor growth curve was plotted. […]
FIG. 2 is a graph showing the detection results of a tumor growth inhibition assay of antigenic epitope peptides derived from various genes tested. […] The tumor size in the mice was detected every 3 days.
FIG. 3 is a graph showing the detection results of testing the inhibitory effect of mixed peptide vaccines on tumor growth after vaccines are prepared by mixing the effective antigenic epitope peptides. […] The tumor size in the mice was detected every 3 days. […]

Row | Sequence | Specific T-cell response (IFN-γ secretion, ELISPOT) [1] | Inhibition of tumor growth (tumor size) [2]
1 | FYMMPVNSEVM [NUF-2] | can strongly stimulate the immune response of specific T cells; also recorded: significant T-cell responses; also recorded: strongest T-cell response | can effectively inhibit the growth of bladder cancer; also recorded: significantly inhibited the growth of bladder cancer; also recorded: most significant tumor-inhibiting effects
2 | VHLAKSLPL [CENPM] | can strongly stimulate the immune response of specific T cells; also recorded: significant T-cell responses; also recorded: can induce T-cell responses | partial tumor growth inhibitory effect; also recorded: did not show significant tumor inhibition; also recorded: does not show strong anti-tumor effects
